Results: patent publication EP4818159A1 (Kissei Pharmaceutical Co., Ltd., priority 2023, dated 2025)
Like-named read-outs stand apart in the source and are kept apart here.

Experiments:
[1] = target: T1, human TSHR (Homo sapiens, UniProt P16473); test: Antagonist activity using TSH-induced cAMP production in human TSHR-stably expressing CHO cells; assay type: cell-based; conditions: human TSH final concentration of 50 ng/mL, cAMP production rate
T1 construct: expressed in transfected cells
Description: Measurement of antagonist activity using TSH-induced cAMP production in human TSHR-stably expressing CHO cells as an indicator
The gene sequence (reference number NM_000369.2) of human TSHR was inserted into the multiple cloning site of pcDNA3.1(+). The prepared plasmid vector was introduced into CHO cells using a lipofection method to establish human TSHR-stably expressing CHO cells. The obtained cells were seeded at 5 x 10^4 cells/well in a 96-well poly-D-lysine-coated plate, and cultured in an F12 culture medium containing 10% FBS, 400 µg/mL of G418, 50 U/mL of penicillin and 50 µg/mL of streptomycin under conditions of 37°C and 5% CO2 for 1 day. The culture medium was removed, and the cells were then washed twice with 100 µL of an assay buffer (Hanks' Balanced Salt Solution containing 20 mM HEPES and 1 mM IBMX) per well. 30 µL of an assay buffer containing a test compound was added to the well, and incubation was performed at room temperature for 15 minutes. Then, 30 µL of an assay buffer containing human TSH (a final concentration of 50 ng/mL, R&D Systems, Inc.) was added, and incubation was performed at 37°C for 1 hour. The supernatant was removed, a Lysis and Detection Buffer 2 (Cisbio) was added, and incubation was performed at room temperature for 1 hour to prepare a cell lysate. According to the instruction manual of a cAMP Gs HiRange kit (Cisbio), the cell lysate, d2-labeled cAMP and anti-cAMP Europium Cryptate labeled antibodies (Cisbio) were reacted in a 384-well white microplate. Then, a fluorescence intensity ratio (measurement wavelength 665 nm/620 nm) was measured using a multi-plate reader (PHERAstar FSX, BMG LABTECH Japan). The fluorescence intensity ratio of each sample was converted to a cAMP content using a standard curve. The cAMP content was converted as a percentage of the control value to calculate a cAMP production rate. The cAMP production rate was plotted against the test compound concentration using Prism (Graph Pad Software Inc.) to calculate the IC50 value. In the tables, IC50<3.0 µM was indicated as A, and 3.0 µM≤IC50<30 µM was indicated as B. If activity was observed but the IC50 value could not be calculated, it was indicated as C.

[2] = cited from earlier work

T1 sequence (P16473 21-764): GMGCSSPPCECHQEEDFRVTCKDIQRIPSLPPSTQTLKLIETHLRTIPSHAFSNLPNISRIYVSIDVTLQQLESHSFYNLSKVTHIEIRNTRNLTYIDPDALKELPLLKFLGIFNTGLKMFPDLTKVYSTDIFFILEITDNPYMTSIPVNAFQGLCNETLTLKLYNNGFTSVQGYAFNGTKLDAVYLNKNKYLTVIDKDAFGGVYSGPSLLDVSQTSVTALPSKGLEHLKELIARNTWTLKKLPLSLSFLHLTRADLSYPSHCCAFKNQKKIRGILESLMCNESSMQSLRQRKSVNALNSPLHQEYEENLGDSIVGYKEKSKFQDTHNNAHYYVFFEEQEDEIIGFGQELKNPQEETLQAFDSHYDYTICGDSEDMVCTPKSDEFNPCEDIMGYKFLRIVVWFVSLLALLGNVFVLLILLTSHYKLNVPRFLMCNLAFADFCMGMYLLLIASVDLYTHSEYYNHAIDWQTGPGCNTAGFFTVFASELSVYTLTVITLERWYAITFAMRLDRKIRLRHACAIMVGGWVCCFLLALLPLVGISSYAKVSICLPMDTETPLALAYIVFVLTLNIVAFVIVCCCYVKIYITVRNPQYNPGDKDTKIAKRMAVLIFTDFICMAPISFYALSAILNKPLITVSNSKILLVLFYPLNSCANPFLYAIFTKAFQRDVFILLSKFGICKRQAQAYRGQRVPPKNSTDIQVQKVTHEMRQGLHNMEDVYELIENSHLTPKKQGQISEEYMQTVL

SMILES | IC50 [1] [µM] | blood T4 concentration lowering effect ([2]; mice in which a TSH-releasing hormone (TRH) has been administered) | blood T4 concentration lowering effect ([2]; mice in which a thyroid stimulating antibody M22 has been administered)
CN1C(=O)[C@H](NC2=NC(=O)CN2)Cc2cccc(Oc3cc(F)ccc3Cl)c21 [Example 33, (R)-8-(2-chloro-5-fluorophenoxy)-1-methyl-3-((4-oxo-4,5-dihydro-1H-imidazole-2-yl)amino)-3,4-dihydroquinoline-2(1H)-one] | 3 to 30 | – | –
CN1C(=O)[C@H](Nc2ncc[nH]2)Cc2cccc(Oc3cc(F)ccc3Cl)c21 [Example 34, (R)-3-((1H-imidazole-2-yl)amino)-8-(2-chloro-5-fluorophenoxy)-1-methyl-3,4-dihydroquinoline-2(1H)-one] | 3 to 30 | – | –
CN1C(=O)[C@H](NC(N)=O)Cc2cccc(CCc3ccccc3)c21 [Example 35, (R)-1-(1-methyl-2-oxo-8-phenethyl-1,2,3,4-tetrahydroquinoline-3-yl)urea] | 3 to 30 | – | –
CN1C(=O)[C@H](NC(N)=O)Cc2csc(Cc3cc(F)ccc3Cl)c21 [Example 36, (R)-1-(7-(2-chloro-5-fluorobenzyl)-1-methyl-2-oxo-1,2,3,4-tetrahydrothieno[3,4-b]pyridine-3-yl)urea] | < 3 | – | –
CN1C(=O)[C@H](NC(N)=O)Cc2scc(Cc3cc(F)ccc3Cl)c21 [Example 37, (R)-1-(3-(2-chloro-5-fluorobenzyl)-4-methyl-5-oxo-4,5,6,7-tetrahydrothieno[3,2-b]pyridine-6-yl)urea] | < 3 | – | –
Cc1sc2c(c1Cc1cc(F)ccc1Cl)N(C)C(=O)[C@H](NC(N)=O)C2 [Example 38, (R)-1-(3-(2-chloro-5-fluorobenzyl)-2,4-dimethyl-5-oxo-4,5,6,7-tetrahydrothieno[3,2-b]pyridin-6-yl)urea] | < 3 | – | –
CN1C(=O)[C@H](NC(N)=O)Cc2sc(Br)c(Cc3cc(F)ccc3Cl)c21 [Example 39, (R)-1-(2-bromo-3-(2-chloro-5-fluorobenzyl)-4-methyl-5-oxo-4,5,6,7-tetrahydrothieno[3,2-b]pyridin-6-yl)urea] | < 3 | – | –
CN1C(=O)[C@H](NC(N)=O)Cc2sc(C#N)c(Cc3cc(F)ccc3Cl)c21 [Example 40, (R)-1-(3-(2-chloro-5-fluorobenzyl)-2-cyano-4-methyl-5-oxo-4,5,6,7-tetrahydrothieno[3,2-b]pyridin-6-yl)urea] | < 3 | – | –
CN1C(=O)[C@H](NC(N)=O)Cc2sc(CO)c(Cc3cc(F)ccc3Cl)c21 [Example 41, (R)-1-(3-(2-chloro-5-fluorobenzyl)-2-(hydroxymethyl)-4-methyl-5-oxo-4,5,6,7-tetrahydrothieno[3,2-b]pyridin-6-yl)urea] | < 3 | – | –
CN1C(=O)C(NC(N)=O)Cc2scc(C(=O)c3cc(F)ccc3Cl)c21 (stereo not shown) [Example 42, 1-(3-(2-chloro-5-fluorobenzoyl)-4-methyl-5-oxo-4,5,6,7-tetrahydrothieno[3,2-b]pyridin-6-yl) urea] | < 3 | – | –
CC(c1cc(F)ccc1Cl)c1nsc2c1N(C)C(=O)[C@H](NC(N)=O)C2 (stereo partly drawn) [Example 43, 1-((6R)-3-(1-(2-chloro-5-fluorophenyl)ethyl)-4-methyl-5-oxo-4,5,6,7-tetrahydroisothiazolo[4 ,5-b]pyridine-6-yl)urea] | < 3 | – | –
COc1ccc(C2Nc3ccccc3C(=O)N2Cc2ccco2)cc1COc1c(C)cc(NC(C)=O)cc1C (stereo not shown) [NCGC00242364] | – | blood T4 concentration lowering effect | blood T4 concentration lowering effect
